This passage reports GI50 and TGI results from PubChem BioAssay (NCI).

This test relates to MDA-MB-468 breast. Description: NCI-60 cell line screen, 48 h.

“And” between values parts separate entries of the source, which are not always exact repeats. Identical values can stand only once.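 Cells were grown in 96-well plates and exposed to each compound for 48 hours at five concentrations; endpoints were interpolated linearly between bracketing concentrations, or set to the highest concentration if not reached. Abbreviation: GI50, concentration required for 50% inhibition of growth. TGI: concentration producing complete growth inhibition.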

With `Cc1ccc(C2=NN(c3ccc(S(N)(=O)=O)cc3)C(c3cn(-c4ccccc4)nc3-c3ccccc3)C2)cc1` (configuration not stated), the GI50 is 24300 nM and the TGI is more than 100000 nM. Consider `CN1CCN(CC(=O)N2c3cccc4cccc(c34)N(C(=O)CN3CCN(C)CC3)C2c2cn(-c3ccccc3)nc2-c2cccc([N+](=O)[O-])c2)CC1`, for which the GI50 is 1610 nM and the TGI turned out to be 3060 nM. With `CC(CN)[C@@H]1CC[C@]2(CO)CC[C@]3(C)[C@H](CC[C@@H]4[C@@]5(C)CCC(N)C(C)(C)[C@@H]5CC[C@]43C)[C@@H]12` (some centres not stated), the GI50 is 1590 nM and the TGI came out at 3250 nM. In the case of `C[C@@H]1OCC2(CCN(c3cnc(Sc4ccnc(N)c4Cl)c(N)n3)CC2)[C@@H]1N`, the GI50 was 14800 nM and the TGI was more than 100000 nM. With `COc1ccc2nc3ccccc3c(NCc3ccc(C)cc3)c2c1`, the GI50 was 1810 nM and the TGI turned out to be 3920 nM. `C=C1C(=O)O[C@H]2[C@H]1CC/C(COC(=O)NCc1cc(OC)cc(OC)c1)=C\CC[C@@]1(C)O[C@@H]21`: the GI50 is 580 nM and the TGI stood at 2330 nM.

Regarding `CCOCCOC[C@H]1CCCN(c2ccnc3sc(C(N)=O)c(N)c23)C1`, the GI50 is 3440 nM and the TGI was more than 100000 nM. `Nc1c2ccccc2nc2ccccc12` (tested in a mixture with another compound): the GI50 was 1070 nM and the TGI was found to be 3210 nM.

For `C=CCSSc1ncnc2c1ncn2C1OC(CO)C(O)C1O` (configuration not stated), the GI50 was 217 nM and the TGI was determined as 4460 nM.

In the case of `C=C(C)[C@@H]1CC[C@]2(C(N)=O)CC[C@]3(C)[C@H](CC[C@@H]4[C@@]5(C)C/C(=C/c6cccnc6)[C@H](O)C(C)(C)[C@@H]5CC[C@]43C)[C@@H]12`, the GI50 was 4050 nM and the TGI is more than 100000 nM. On to `O=c1cc(-c2cccc(OCc3ccccc3)c2)[nH]c2cc3c(cc12)OCO3`, for which the GI50 is 9590 nM and the TGI is more than 100000 nM.

Consider `Oc1c(CN2CCN(c3ccccc3F)CC2)cc(Br)c2cccnc12`, for which the GI50 was 673 nM and the TGI came to 6840 nM. With `CCN1CCN(c2ccc(Nc3ncc4ccc5ncn(C(C)C)c5c4n3)nc2)CC1`, the GI50 was 177 nM and the TGI came to 444 nM. Take `O=C(NCCCCCCNC(=O)OCc1ccc2c(Cl)cc(Cl)c(O)c2n1)OCc1ccc2c(Cl)cc(Cl)c(O)c2n1`: the GI50 is 590 nM and the TGI turned out to be 2140 nM.

As to `Oc1c(I)cc(I)cc1CN(Cc1ccccn1)Cc1ccccn1`, the GI50 is 1310 nM and the TGI is 7280 nM.

Turning to `N#Cc1nn(-c2cc(=O)[nH]c3ccc(Br)cc23)c(N)c1C#N`, the GI50 is more than 100000 nM and the TGI was more than 100000 nM. `CNC(=O)CN1CCC(Oc2cc3c(Nc4cccc(Cl)c4F)ncnc3cc2OC)CC1`: the GI50 was < 10 nM and 4.03 nM. Regarding `O=[N+]([O-])c1cc2c(c([N+](=O)[O-])c1)Nc1ccccc1O2`, the GI50 is 2140 nM and the TGI came out at 9840 nM. Regarding `Cc1cc2nc(C(Cl)Cl)nc(-c3ccccc3)n2n1`, the GI50 is 1810 nM and the TGI worked out at 4450 nM. Turning to `Fc1cccc(-c2[nH]nc3nc(Nc4cccnc4)sc23)c1`, the GI50 was 360 nM and the TGI was found to be 3000 nM. For the molecule `COc1cc(N2CCC(N3CCN(C)CC3)CC2)ccc1Nc1ncc(Cl)c(Nc2ccccc2S(=O)(=O)C(C)C)n1`, the GI50 is 483 nM and the TGI is 1780 nM. Take `COc1ccc2nc(-c3cc4c([nH]c5ccccc54)c(-c4ccc(F)c(F)c4)n3)[nH]c2c1`: the GI50 is 1700 nM and the TGI was 3920 nM. `COc1cnc2c(c1)C(=O)c1c-2n(CCCNC(C)C)c(=O)c2cc([N+](=O)[O-])ccc12`: the GI50 is 20.6 nM and the TGI came out at 60.3 nM. Take `COc1ccc(C2CC(=O)c3c(O)c(OC)c(OC)c(OC)c3O2)cc1O` (configuration not stated): the GI50 is 1510 nM and the TGI is more than 100000 nM. For `CCN(CC)CC[n+]1cc2cc(OC)c(OC)cc2c2ccc3cc4c(cc3c21)OCO4`, in that order: 241 nM and 1090 nM.

For the molecule `Cc1nc2sc(C(=O)Nc3cccc(Br)c3)c(N)c2cc1C(O)c1ccccc1` (configuration not stated), the GI50 is 380 nM and the TGI turned out to be 10200 nM. On to `O=C(O)c1ccccc1Nc1ccc2nnc(-c3ccncc3)n2n1`, for which the GI50 is 1960 nM and the TGI was found to be 4590 nM. With `Clc1ccc2c(NCCNc3nc(N4CCCC4)nc4ccccc34)ccnc2c1`, the GI50 is 1200 nM and the TGI was determined as 3430 nM. Turning to `Oc1ccc(-c2nnc(SCc3ccc(O)c4ncccc34)n2-c2ccccc2)cc1`, the GI50 was 421 nM and the TGI was determined as 2830 nM. The matching figures for `C/C(=C\c1ccn(-c2ccc(N)cc2F)n1)[C@@H]1C[C@@H]2O[C@]2(C)CCC[C@H](C)[C@H](O)[C@@H](C)C(=O)C(C)(C)[C@@H](O)CC(=O)O1`: 26.3 nM and 300 nM. In the case of `Cc1nn(C)c2cc(N(C)c3ccnc(Nc4cccc(S(N)(=O)=O)c4)n3)ccc12`, the GI50 was 4190 nM and the TGI was determined as 13700 nM. Take `O=S(=O)(Nc1ccccn1)c1ccc(N=Nc2ccc(O)c3ncccc23)cc1`: the GI50 is 2230 nM and the TGI was found to be 8440 nM. With `CC#CC(=O)N1CC[C@@H](n2c(=O)n(-c3ccc(Oc4ccccc4)cc3)c3c(N)ncnc32)C1`, the GI50 was 10500 nM and the TGI turned out to be 60200 nM. `COc1cc(C)c(NC(=O)CN(C)C)cc1Nc1nc(Nc2cccc(F)c2C(N)=O)c2cc[nH]c2n1`: the GI50 was 263 nM and the TGI came to 1210 nM.
